Assay results published in US11229618B2 (Amarin Pharmaceuticals Ireland Limited, priority 2012, dated 2022).

Assay: AAMI 6-week study: essential fatty acid parameters in plasma (gas chromatography)
Format: in vivo, human
Conditions: for AA Plasma Mean change from Baseline / DHA Plasma Mean change from Baseline / AA Plasma 1 or 2 g versus 4 g LS Mean / DHA Plasma 1 or 2 g versus 4 g LS Mean: AAMI; for AA Plasma Mean change from Baseline / DHA Plasma Mean change from Baseline: mean (SD); for DGLA 1 or 2 g versus 4 g, LS Mean / DPAn-3 1 or 2 g versus 4 g, LS Mean / EPA/AA 1 or 2 g versus 4 g, LS Mean / DGLA Mean change from Baseline, Mean (SD) / DPAn-3 Mean change from Baseline, Mean (SD) / EPA/AA Mean change from Baseline, Mean (SD) / DGLA Baseline Mean (SD) / DPAn-3 Baseline Mean (SD) / EPA/AA Baseline Mean (SD): plasma; for DPAn-3 1 or 2 g versus 4 g, LS Mean / EPA/AA 1 or 2 g versus 4 g, LS Mean: p-value <0.001
Experimental: A single-center, 6-week, double-blind, randomizes, parallel-group, placebo-controlled, dose-ranging pilot study was performed to evaluate the efficacy, tolerability, and safety of >96% ethyl-EPA in subjects with subjective and objective memory impairment according to generally accepted criteria for Age-Associated Memory Impairment (“AAMI”). The primary objective of the study was to determine the effect of >96% ethyl-EPA 1 g, 2 g, and 4 g daily, compared to placebo, on cognitive performance in subjects with AAMI.
Ninety-four subjects were randomized into one of six groups: 1 g E-EPA daily (n=23), 2 g E-EPA daily (n=24), 4 g E-EPA daily (n=24), 1 g placebo daily (n=7), 2 g placebo daily (n=8), and 4 g placebo daily (n=8). E-EPA was provided as 500 mg soft gel capsules containing>96% E-EPA and 0.2% dl-α-tocopherol as an antioxidant. Placebo capsules contained 467 mg of liquid paraffin and 0.2% dl-α-tocopherol. Ninety-one subjects completed the study. Two subjects in the 2 g E-EPA group and one subject in the 2 g placebo group discontinued the study.
Blood samples (10 mL) were collected at Visit 1 (screening) and at Visits 4, 5 and 6. Analysis was performed by MSR Lipid Analysis, Scottish Crop Research Institute, Dundee, UK. The screening sample acted as baseline for the EFA measurements. Lipid was extracted from plasma, serum and RBC suspensions and converted into fatty acid methyl esters which were analyzed by gas chromatography to give fatty acid profiles as micrograms fatty acid per gram of sample (μgFA/g) and normalized area percent.
RBC and plasma EFA data were collected at baseline, Day 14, 28 and 42 and summarized by visit for each treatment group. Change from baseline and percent change from baseline were also summarized. ANCOVA comparison of ethyl-EPA dose groups and ethyl-EPA versus placebo was performed.

Structure (SMILES): CC/C=C\C/C=C\C/C=C\C/C=C\C/C=C\CCCC(=O)OCC [IPE, all-cis eicosa-5,8,11,14,17-pentaenoic acid ethyl ester]
- AA Plasma Mean change from Baseline (1 g daily, Day 14): −9.7 (22.20) μg/g
- DHA Plasma Mean change from Baseline (1 g daily, Day 14): −6.4 (13.30) μg/g
- AA Plasma Mean change from Baseline (1 g daily, Day 28): −11.3 (28.13) μg/g
- DHA Plasma Mean change from Baseline (1 g daily, Day 28): −6.6 (15.53) μg/g
- AA Plasma Mean change from Baseline (1 g daily, Day 42): −8.7 (31.35) μg/g
- DHA Plasma Mean change from Baseline (1 g daily, Day 42): −5.4 (18.17) μg/g
- AA Plasma 1 or 2 g versus 4 g LS Mean (1 g versus 4 g): 4.2 µg/g
- DHA Plasma 1 or 2 g versus 4 g LS Mean (1 g versus 4 g): -0.8 µg/g
- AA Plasma Mean change from Baseline (2 g daily, Day 14): −13.9 (22.13) μg/g
- DHA Plasma Mean change from Baseline (2 g daily, Day 14): −5.4 (14.29) μg/g
- AA Plasma Mean change from Baseline (2 g daily, Day 28): 21.6 (28.32) μg/g
- DHA Plasma Mean change from Baseline (2 g daily, Day 28): −8.1 (15.82) μg/g
- AA Plasma Mean change from Baseline (2 g daily, Day 42): −27.3 (26.76) μg/g
- DHA Plasma Mean change from Baseline (2 g daily, Day 42): −6.0 (16.69) μg/g
- AA Plasma 1 or 2 g versus 4 g LS Mean (2 g versus 4 g): 15.6 µg/g
- DHA Plasma 1 or 2 g versus 4 g LS Mean (2 g versus 4 g): 1.5 µg/g
- AA Plasma Mean change from Baseline (4 g daily, Day 14): −27.2 (28.89) μg/g
- DHA Plasma Mean change from Baseline (4 g daily, Day 14): −10.3 (13.35) μg/g
- AA Plasma Mean change from Baseline (4 g daily, Day 28): −43.7 (32.24) μg/g
- DHA Plasma Mean change from Baseline (4 g daily, Day 28): −13.5 (14.10) μg/g
- AA Plasma Mean change from Baseline (4 g daily, Day 42): −48.3 (22.20) μg/g
- DHA Plasma Mean change from Baseline (4 g daily, Day 42): −13.8 (15.31) μg/g
- DGLA 1 or 2 g versus 4 g, LS Mean (Ethyl-EPA 1 g versus 4 g, p-value 0.028): 3.7 µg/g
- DPAn-3 1 or 2 g versus 4 g, LS Mean (Ethyl-EPA 1 g versus 4 g): -15.1 µg/g
- EPA/AA 1 or 2 g versus 4 g, LS Mean (Ethyl-EPA 1 g versus 4 g): −0.66
- DGLA Mean change from Baseline, Mean (SD) (Ethyl-EPA 1 g, Day 14): −10.4 (10.90) μg/g
- DPAn-3 Mean change from Baseline, Mean (SD) (Ethyl-EPA 1 g, Day 14): 7.5 (5.11) μg/g
- EPA/AA Mean change from Baseline, Mean (SD) (Ethyl-EPA 1 g, Day 14): 0.3 (0.4)
- DGLA Mean change from Baseline, Mean (SD) (Ethyl-EPA 1 g, Day 28): −10.6 (10.23) μg/g
- DPAn-3 Mean change from Baseline, Mean (SD) (Ethyl-EPA 1 g, Day 28): 8.9 (5.62) μg/g
- EPA/AA Mean change from Baseline, Mean (SD) (Ethyl-EPA 1 g, Day 28): 0.3 (0.20)
- DGLA Mean change from Baseline, Mean (SD) (Ethyl-EPA 1 g, Day 42): −9.4 (9.41) μg/g
- DPAn-3 Mean change from Baseline, Mean (SD) (Ethyl-EPA 1 g, Day 42): 11.3 (6.61) μg/g
- EPA/AA Mean change from Baseline, Mean (SD) (Ethyl-EPA 1 g, Day 42): 0.3 (0.24)
- DGLA Baseline Mean (SD) (Ethyl-EPA 1 g): 51.2 (15.01) μg/g
- DPAn-3 Baseline Mean (SD) (Ethyl-EPA 1 g): 21.1 (6.62) μg/g
- EPA/AA Baseline Mean (SD) (Ethyl-EPA 1 g): 0.2 (0.14)
- DGLA 1 or 2 g versus 4 g, LS Mean (Ethyl-EPA 2 g versus 4 g, p-value 0.143): 2.5 µg/g
- DPAn-3 1 or 2 g versus 4 g, LS Mean (Ethyl-EPA 2 g versus 4 g): -9.5 µg/g
- EPA/AA 1 or 2 g versus 4 g, LS Mean (Ethyl-EPA 2 g versus 4 g): −0.41
- DGLA Mean change from Baseline, Mean (SD) (Ethyl-EPA 2 g, Day 14): −14.1 (6.88) μg/g
- DPAn-3 Mean change from Baseline, Mean (SD) (Ethyl-EPA 2 g, Day 14): 17.4 (7.49) μg/g
- EPA/AA Mean change from Baseline, Mean (SD) (Ethyl-EPA 2 g, Day 14): 0.6 (0.23)
- DGLA Mean change from Baseline, Mean (SD) (Ethyl-EPA 2 g, Day 28): −16.2 (9.88) μg/g
- DPAn-3 Mean change from Baseline, Mean (SD) (Ethyl-EPA 2 g, Day 28): 19.4 (8.48) μg/g
- EPA/AA Mean change from Baseline, Mean (SD) (Ethyl-EPA 2 g, Day 28): 0.8 (0.35)
- DPAn-3 Mean change from Baseline, Mean (SD) (Ethyl-EPA 2 g, Day 42): 19.3 (8.63) μg/g
- EPA/AA Mean change from Baseline, Mean (SD) (Ethyl-EPA 2 g, Day 42): 0.7 (0.29)
- DGLA Baseline Mean (SD) (Ethyl-EPA 2 g): 53.5 (14.12) μg/g
- DPAn-3 Baseline Mean (SD) (Ethyl-EPA 2 g): 19.7 (4.50) μg/g
- EPA/AA Baseline Mean (SD) (Ethyl-EPA 2 g): 0.2 (0.12)
- DGLA Mean change from Baseline, Mean (SD) (Ethyl-EPA 4 g, Day 14): −22.9 (9.00) μg/g
- DPAn-3 Mean change from Baseline, Mean (SD) (Ethyl-EPA 4 g, Day 14): 24.5 (11.28) μg/g
- EPA/AA Mean change from Baseline, Mean (SD) (Ethyl-EPA 4 g, Day 14): 1.1 (0.28)
- DGLA Mean change from Baseline, Mean (SD) (Ethyl-EPA 4 g, Day 28): −24.2 (10.73) μg/g
- DPAn-3 Mean change from Baseline, Mean (SD) (Ethyl-EPA 4 g, Day 28): 29.7 (13.23) μg/g
- EPA/AA Mean change from Baseline, Mean (SD) (Ethyl-EPA 4 g, Day 28): 1.3 (0.42)
- DGLA Mean change from Baseline, Mean (SD) (Ethyl-EPA 4 g, Day 42): −22.5 (10.87) μg/g
- DPAn-3 Mean change from Baseline, Mean (SD) (Ethyl-EPA 4 g, Day 42): 32.0 (16.01) μg/g
- EPA/AA Mean change from Baseline, Mean (SD) (Ethyl-EPA 4 g, Day 42): 1.3 (0.45)
- DGLA Baseline Mean (SD) (Ethyl-EPA 4 g): 57.1 (14.73) μg/g
- DPAn-3 Baseline Mean (SD) (Ethyl-EPA 4 g): 21.7 (4.69) μg/g
- EPA/AA Baseline Mean (SD) (Ethyl-EPA 4 g): 0.2 (0.07)
